# Test results reported in the supplement of paper PMC10307832.
# What was measured:
# Assay in all cases: relative viability (nuclei count vs DMSO), 5 days (fraction); higher = more cells survive
# [1] = system: NCI-H1734
# Outline: (§1)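 One day after seeding in 1536-well plates, lung cancer cell lines were dosed by pin tool. Dosing was either single-drug or a fixed anchor-drug dose plus five library-drug doses (not always all listed) in √10 steps. After 5 days, nuclei were stained in one fix-and-stain step and counted on 4× images, and relative viability is the nuclei count of treated wells over that of vehicle wells, given as the median of duplicate plates.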
# [2] = system: NCI-H3122
# Outline: as §1
# [3] = system: HOP-62
# Outline: as §1
# [4] = system: NCI-H2126
# Outline: as §1
# [5] = system: 201T
# Outline: as §1
# [6] = system: NCI-H1755
# Outline: as §1
# [7] = system: ChaGo-K-1
# Outline: as §1
# [8] = system: NCI-H2009
# Outline: as §1
# [9] = system: NCI-H322M
# Outline: as §1
# [10] = system: LK-2
# Outline: as §1
# [11] = system: NCI-H2170
# Outline: as §1
# [12] = system: H3255
# Outline: as §1
# [13] = system: NCI-H2087
# Outline: as §1
# [14] = system: LXF-289
# Outline: as §1
# [15] = system: NCI-H596
# Outline: as §1
# [16] = system: CAL-12T
# Outline: as §1
# [17] = system: ABC-1
# Outline: as §1
# [18] = system: NCI-H441
# Outline: as §1
# [19] = system: SK-MES-1
# Outline: as §1
# [20] = system: PC-14
# Outline: as §1
# [21] = system: EMC-BAC-2
# Outline: as §1
# [22] = system: NCI-H1651
# Outline: as §1
# [23] = system: NCI-H647
# Outline: as §1
smiles,measurement,setting,value
Cc1cnc(-c2cnc(NCCNc3ccc(C#N)cn3)nc2-c2ccc(Cl)cc2Cl)[nH]1 + CCNC(=O)c1noc(-c2cc(C(C)C)c(O)cc2O)c1-c1ccc(CN2CCOCC2)cc1 [Luminespib] (partner 0.01 µM),relative viability,[1]; first compound 0.08 µM,0.208
same,relative viability,[1]; first compound 0.253 µM,0.199
same,relative viability,[1]; first compound 0.8 µM,0.144
same,relative viability,[1]; first compound 2.53 µM,0.23
same,relative viability,[2]; first compound 0.08 µM,0.124
same,relative viability,[2]; first compound 0.8 µM,0.0778
same,relative viability,[2]; first compound 2.53 µM,0.0737
same,relative viability,[3]; first compound 0.08 µM,0.955
same,relative viability,[3]; first compound 0.253 µM,0.841
same,relative viability,[3]; first compound 0.8 µM,0.79
same,relative viability,[3]; first compound 2.53 µM,0.738
same,relative viability,[4]; first compound 0.08 µM,1.11
same,relative viability,[4]; first compound 0.253 µM,0.861
same,relative viability,[4]; first compound 0.8 µM,0.966
same,relative viability,[4]; first compound 2.53 µM,0.903
same,relative viability,[5]; first compound 0.08 µM,1.11
same,relative viability,[5]; first compound 0.8 µM,1.06
same,relative viability,[5]; first compound 2.53 µM,1.01
same,relative viability,[6]; first compound 0.08 µM,0.614
same,relative viability,[6]; first compound 0.253 µM,0.327
same,relative viability,[6]; first compound 0.8 µM,0.59
same,relative viability,[6]; first compound 2.53 µM,0.385
same,relative viability,[7]; first compound 0.08 µM,0.622
same,relative viability,[7]; first compound 0.253 µM,0.608
same,relative viability,[7]; first compound 0.8 µM,0.603
same,relative viability,[7]; first compound 2.53 µM,0.538
same,relative viability,[8]; first compound 0.08 µM,1.03
same,relative viability,[8]; first compound 0.253 µM,0.984
same,relative viability,[8]; first compound 0.8 µM,0.995
same,relative viability,[8]; first compound 2.53 µM,0.975
same,relative viability,[9]; first compound 0.08 µM,0.969
same,relative viability,[9]; first compound 0.253 µM,0.808
same,relative viability,[9]; first compound 0.8 µM,0.857
same,relative viability,[9]; first compound 2.53 µM,1.03
same,relative viability,[10]; first compound 0.08 µM,0.197
same,relative viability,[10]; first compound 0.253 µM,0.227
same,relative viability,[10]; first compound 0.8 µM,0.239
same,relative viability,[10]; first compound 2.53 µM,0.205
same,relative viability,[11]; first compound 0.08 µM,0.984
same,relative viability,[11]; first compound 0.253 µM,0.593
same,relative viability,[11]; first compound 0.8 µM,0.667
same,relative viability,[11]; first compound 2.53 µM,0.655
same,relative viability,[12]; first compound 0.08 µM,0.96
same,relative viability,[12]; first compound 0.253 µM,0.933
same,relative viability,[12]; first compound 0.8 µM,0.977
same,relative viability,[12]; first compound 2.53 µM,0.835
same,relative viability,[13]; first compound 0.08 µM,0.128
same,relative viability,[13]; first compound 0.253 µM,0.128
same,relative viability,[13]; first compound 0.8 µM,0.208
same,relative viability,[13]; first compound 2.53 µM,0.175
same,relative viability,[14]; first compound 0.08 µM,0.695
same,relative viability,[14]; first compound 0.253 µM,0.605
same,relative viability,[14]; first compound 0.8 µM,0.726
same,relative viability,[14]; first compound 2.53 µM,0.665
same,relative viability,[15]; first compound 0.08 µM,1.06
same,relative viability,[15]; first compound 0.253 µM,1.03
same,relative viability,[15]; first compound 0.8 µM,1.05
same,relative viability,[15]; first compound 2.53 µM,1.24
same,relative viability,[16]; first compound 0.08 µM,0.932
same,relative viability,[16]; first compound 0.253 µM,0.259
same,relative viability,[16]; first compound 0.8 µM,0.387
same,relative viability,[16]; first compound 2.53 µM,0.242
same,relative viability,[17]; first compound 0.08 µM,0.591
same,relative viability,[17]; first compound 2.53 µM,0.82
same,relative viability,[18]; first compound 0.08 µM,0.409
same,relative viability,[18]; first compound 0.253 µM,0.342
same,relative viability,[18]; first compound 0.8 µM,0.311
same,relative viability,[18]; first compound 2.53 µM,0.276
same,relative viability,[19]; first compound 0.08 µM,0.859
same,relative viability,[19]; first compound 0.253 µM,0.757
same,relative viability,[19]; first compound 0.8 µM,0.838
same,relative viability,[19]; first compound 2.53 µM,0.921
same,relative viability,[20]; first compound 0.08 µM,0.151
same,relative viability,[20]; first compound 0.253 µM,0.24
same,relative viability,[20]; first compound 0.8 µM,0.107
same,relative viability,[20]; first compound 2.53 µM,0.18
same,relative viability,[21]; first compound 0.08 µM,1.25
same,relative viability,[21]; first compound 0.253 µM,1.05
same,relative viability,[21]; first compound 0.8 µM,1.23
same,relative viability,[21]; first compound 2.53 µM,1.09
same,relative viability,[22]; first compound 0.08 µM,1.03
same,relative viability,[22]; first compound 0.253 µM,0.864
same,relative viability,[22]; first compound 0.8 µM,0.762
same,relative viability,[22]; first compound 2.53 µM,0.883
same,relative viability,[23]; first compound 0.08 µM,0.144
same,relative viability,[23]; first compound 0.253 µM,0.131
same,relative viability,[23]; first compound 0.8 µM,0.135
same,relative viability,[23]; first compound 2.53 µM,0.166
